{"source": "patent EP3045477B1", "about": "“Method for reducing the migration of photoinitiators and their degradation products in UV curable coatings” (IOT - Innovative Oberflächentechnologien GmbH, priority 2015, dated 2016)", "origin": "cited, not measured here", "details": "listed limit, Verordnung (EU) 10/2011", "data": [{"smiles": "Cc1cc(C(C)(C)C)c(O)c(C(C)(C)C)c1", "note": "[Butylhydroxy toluol, Butylhydroxytoluol]", "values": [{"measurement": "spezifische Migrationslimit", "value": 3, "unit": "mg/kg"}]}]}
